Values belong to the compound of their own block, whether it stands above or below them.
Columns and labels:
[1] = tested on: human colon carcinoma cell line, HT-29; experiment: HT-29 tumor cell growth inhibition, Sulforhodamine B (SRB) protein binding assay; assay type: cell-based; conditions: 144 h, six days continuous exposure
Method: These compounds were assayed for their effect on the human colon carcinoma cell line, HT-29 obtained from ATCC, (Rockville, Md.) to ascertain the degree of growth inhibition. Growth inhibition of this cell line is indicative of a benefit on precancerous lesions and neoplasms. The cell line and growth assay employed for these experiments is well characterized, and is used by the United States National Cancer Institute in its screening program for new anti-cancer drugs.
Drug stock solutions were made in 100% DMSO then diluted with RPMI media for cell culture testing. All drug solutions were prepared fresh on the day of testing. The cultured cells were obtained at passage #118 and grown in RPMI media supplemented with 5% fetal calf serum, and 2 mM glutamine, 100 U/ml penicillin, 100 U/ml streptomycin, and 0.25 μg/ml amphotericin. The cultures were maintained in a humidified atmosphere of 95% air and 5% CO2 at 37° C. The cultures were passaged at preconfluent densities using a solution of 0.05% trypsin and 0.53 mM EDTA. All experiments involved HT-29 cells between passages 120 and 140. Cells were plated at the following densities to obtain cultures used for the experiments: 500 cells/well for 96 well flat-bottom microtiter plates, 1×10^6 cells per 25 cm^2 flask.
Tumor cell growth inhibition was assessed using the Sulforhodamine B (SRB) protein binding assay. In this assay, tumor cells were plated in 96-well plates and treated with drug-containing media for six days (continuous exposure). For each plate, 6 wells were designated as no treatment controls, six wells as vehicle (0.1% DMSO) controls, and the remaining wells for drug dilutions with six wells per drug concentration. At the end of the exposure period, the cells were fixed and stained with sulforhodamine B, a protein binding dye. The dye was then solubilized, and the optical density of the resulting solution was determined on a 96-well plate reader. The mean dye intensity of the treated wells was then divided by the mean dye intensity in the control wells (6 wells of each) to determine the effect of the drug on the cells. Dye intensity is proportional to the number of cells or amount of protein per well. The resultant "percent inhibition" value then represents the degree of growth inhibition caused by the drug.
For each experiment, an IC50 value was determined and used for comparative purposes. This value is equivalent to the concentration of drug needed to inhibit tumor cell growth by 50%. IC50 values were obtained graphically by connecting the mean values for each drug concentration tested. Each experiment included at least six wells per drug concentration. Concentration was plotted on a log scale on the X-axis.

prostaglandin synthesis = conditions: cited from earlier work
precancerous lesions = conditions: cited from earlier work
purified COX = experiment: Cyclooxygenase (COX) inhibition, purified COX from ram seminal vesicles; assay type: biochemical; conditions: 100 μM dose; arachidonic acid 100 uM, 2.0 min at 37° C.
Method: Compounds of this invention, as well as several others (sce Table 2 below), were evaluated to determine whether they inhibited the production of prostaglandin according to the procedure below. COX is involved in the formation of prostaglandins and thromboxane by the oxidative metabolism of arachidonic acid. […] Briefly, purified COX was incubated with arachidonic acid (100 uM) for 2.0 min at 37° C. in the presence or absence of test compounds. The assay was terminated by the addition of TCA, and COX activity was determined by absorbance at 530 nm.

[2] = tested on: DMBA-Induced Mammary Lesions; experiment: Mouse mammary gland organ culture, DMBA-induced mammary lesions; assay type: cell-based, mouse (female BALB/c); conditions: 15 glands per group
Method: The compound of Example No. 17(d) was also tested for its ability to inhibit the incidence of mammary lesions in an organ culture system. This mouse mammary gland organ culture technique has been successfully used by other investigators to study the effects of known cancer-chemopreventativeagents such as retinoids and selenium.
Female BALB/c mice, 28 days old, were treated for nine days with a combination of 1 μg of estradiol and 1 mg of progesterone daily, in order to prime the glands to be responsive to hormones in vitro. The animals were sacrificed and thoracic mammary glands were excised aseptically and incubated for ten days in growth media supplemented with growth-promoting hormones: insulin, prolactin, and hydrocortisone, at 5 μg/ml each and aldosterone at 1 μg/ml. A twenty-four hour treatment of 7,12-dimethylbenz(a)anthracene (DMBA, 2 μg/ml) was carried out between days three and four to induce the formation of mammary lesions. Fully developed glands were deprived of prolactin, hydrocortisone, and aldosterone for 14 days, resulting in the regression of the glands but not the mammary lesions.
In order to evaluate the effects of Compound No. 17(d), it was dissolved in DMSO and added to the culture media supplemented for the duration of the culture period. At the end of the culture period, the glands were fixed in 10% formalin, stained with alum carmine, and mounted on glass slides. The incidence of forming mammary lesions is the ratio of the glands with mammary lesions and glands without lesions. The incidence of mammary lesions in compound 17(d) treated glands was compared with that of the untreated glands.
The extent of the area occupied by the mammary lesions was quantitated by projecting an image of the gland onto a digitation pad. The area covered by the gland was traced on the pad and considered as 100% of the area, The space covered by each of the unregressed structures was also outlined on the digitization pad and quantitated by the computer.

colonic polyps = conditions: cited from earlier work

Compound: CC1=C(CC(=O)O)c2cc(F)ccc2/C1=C\c1ccc(S(C)(=O)=O)cc1 [sulfone]
activity as inhibitor of prostaglandin synthesis (prostaglandin synthesis): inactive as an inhibitor of prostaglandin synthesis | activity as inhibitor of precancerous lesions (precancerous lesions): active as an inhibitor of precancerous lesions

Compound: COc1cc(OC)c(OC)cc1/C=C1/C(C)=C(CC(=O)O)c2cc(F)ccc21 [17(g), (Z)-5-fluoro-2-methyl-1-(2,4,5-trimethoxybenzylidene)-3-indenylacetic acid]
IC50 [1]: 40 µM

Compound: COc1cc(/C=C2/C(C)=C(CC(=O)O)c3cc(F)ccc32)cc(OC)c1OC [Example 17(d), (Z)-5-fluoro-2-methyl-1-(3,4,5-trimethoxybenzylidene)-3-indenylacetic acid]
IC50 [1]: 39 µM | % Inhibition (purified COX): No inhibition | Glands with Lesions ([2]; 10 μm): 5 | Percent Incidence ([2]; 10 μm): 33.33% | Glands with Lesions ([2]; 100 μm): 0 | Percent Incidence ([2]; 100 μm): 0.00%

Compound: COc1ccc(/C=C2/C(C)=C(CC(=O)O)c3cc(F)ccc32)c(OC)c1OC [17(f), (Z)-5-fluoro-2-methyl-1-(2,3,4-trimethoxybenzylidene)-3-indenylacetic acid]
IC50 [1]: 40 µM

Compound: CC1=C(CC(=O)O)c2cc(F)ccc2/C1=C\c1ccc([S+](C)[O-])cc1 (stereo not drawn) [sulindac]
effect on polyps when patients take the drug (colonic polyps): Polyps virtually disappear

Compound: COc1cc(OC)c(/C=C2/C(C)=C(CC(=O)O)c3cc(F)ccc32)c(OC)c1 [17(e), (Z)-5-fluoro-2-methyl-1-(2,4,6-trimethoxybenzylidene)-3-indenylacetic acid]
IC50 [1]: 61 µM

Compound: CSc1ccc(/C=C2/C(C)=C(CC(=O)O)c3cc(F)ccc32)cc1 [Sulindac Sulfide, reference compound]
% Inhibition (purified COX): 86% | activity as inhibitor of prostaglandin synthesis (prostaglandin synthesis): active moiety as a prostaglandin synthesis inhibitor

Next, values leading:

IC50 [1]: 40 µM
Compound: CC1=C(CC(=O)O)c2cc(F)ccc2/C1=C\c1ccccc1 [17(a), (Z)-5-fluoro-2-methyl-1-benzylidene-3-indenylacetic acid]

IC50 [1]: 58 µM
Compound: CC1=C(CC(=O)O)c2cc(F)ccc2/C1=C\c1ccc(Cl)cc1 [17(b), (Z)-5-fluoro-2-methyl-1-(4-chlorobenzylidene)-3-indenylacetic acid]

IC50 [1]: 29 µM
Compound: COc1ccc(/C=C2/C(C)=C(CC(=O)O)c3cc(F)ccc32)cc1 [16(e), (Z)-5-fluoro-2-methyl-1-(p-methoxy-benzylidene)-3-indenylacetic acid]

IC50 [1]: 31 µM
Compound: CC1=C(CC(=O)O)c2cc(F)ccc2/C1=C\c1c(Cl)cccc1Cl [17(h), (Z)-5-fluoro-2-methyl-1-(2,6-dichlorobenzylidene)-3-indenylacetic acid]
